In the NIST ThermoML archive (doi:10.1021/je060271a):

Settings: 343.15 K, Liquid, Vibrating tube method

CCCCC(=O)OCC(COC(=O)CCCC)(COC(=O)CCCC)COC(=O)CCCC [pentaerythritol tetrapentanoate]
Settings | mass density [kg/m3]
27496 kPa | 998.3
27541 kPa | 998.4
27578 kPa | 998.4
27617 kPa | 998.5
27662 kPa | 998.4
27700 kPa | 998.5
27738 kPa | 998.5
27785 kPa | 998.6
27824 kPa | 998.6
27862 kPa | 998.5
27909 kPa | 998.6
27948 kPa | 998.7
27987 kPa | 998.7
28026 kPa | 998.7
28074 kPa | 998.7
28113 kPa | 998.8
28153 kPa | 998.7
28200 kPa | 998.8
28240 kPa | 998.9
28289 kPa | 998.9
28330 kPa | 998.9
28371 kPa | 998.8
28412 kPa | 998.9
28453 kPa | 999
28503 kPa | 998.9
28545 kPa | 999
28596 kPa | 999.1
28641 kPa | 999
28684 kPa | 999
28725 kPa | 999.2
28755 kPa | 999.2
28785 kPa | 999.3
28821 kPa | 999.1
28853 kPa | 999.3
28882 kPa | 999.3
28912 kPa | 999.2
28948 kPa | 999.2
28978 kPa | 999.3
29009 kPa | 999.3
29045 kPa | 999.5
29076 kPa | 999.4
29107 kPa | 999.3
29143 kPa | 999.5
29174 kPa | 999.4
29204 kPa | 999.5
29242 kPa | 999.5
29275 kPa | 999.5
29306 kPa | 999.5
29338 kPa | 999.6
29375 kPa | 999.6
29406 kPa | 999.6
29437 kPa | 999.6
29474 kPa | 999.6
29506 kPa | 999.7
29538 kPa | 999.7
29576 kPa | 999.7
29607 kPa | 999.7
29639 kPa | 999.8
29671 kPa | 999.8
29710 kPa | 999.8
29741 kPa | 999.9
29780 kPa | 999.8
29812 kPa | 999.9
29845 kPa | 999.9
29878 kPa | 999.9
29917 kPa | 1000
29950 kPa | 999.9
29983 kPa | 1000.1
30022 kPa | 999.9
30056 kPa | 1000
30088 kPa | 999.9
30128 kPa | 1000.2
30194 kPa | 1000.1
30227 kPa | 1000.2
30266 kPa | 1000.1
30299 kPa | 1000.3
30333 kPa | 1000.3
30374 kPa | 1000.1
30407 kPa | 1000.2
30441 kPa | 1000.2
30480 kPa | 1000.3
30514 kPa | 1000.3
30549 kPa | 1000.3
30590 kPa | 1000.5
30624 kPa | 1000.3
30658 kPa | 1000.4
30698 kPa | 1000.5
30733 kPa | 1000.5
30767 kPa | 1000.5
30808 kPa | 1000.6
30843 kPa | 1000.4
30878 kPa | 1000.6
30919 kPa | 1000.5
30954 kPa | 1000.5
30990 kPa | 1000.7
31031 kPa | 1000.7
31067 kPa | 1000.8
31103 kPa | 1000.6
31138 kPa | 1000.7
31181 kPa | 1000.7
31216 kPa | 1000.7
31252 kPa | 1000.8
31294 kPa | 1000.8
31330 kPa | 1000.9
31366 kPa | 1000.9
31409 kPa | 1001
31444 kPa | 1000.8
31481 kPa | 1000.8
31524 kPa | 1000.8
31560 kPa | 1000.9
31597 kPa | 1000.9
31634 kPa | 1001
31678 kPa | 1001
31714 kPa | 1001
31758 kPa | 1001.1
31795 kPa | 1001
31832 kPa | 1001
31876 kPa | 1001.1
31913 kPa | 1001.1
31950 kPa | 1001.3
31995 kPa | 1001.3
32033 kPa | 1001.4
32074 kPa | 1001.2
32111 kPa | 1001.4
32156 kPa | 1001.3
32194 kPa | 1001.5
32232 kPa | 1001.2
32278 kPa | 1001.4
32438 kPa | 1001.5
32476 kPa | 1001.5
32563 kPa | 1001.6
32604 kPa | 1001.6
32643 kPa | 1001.6
32691 kPa | 1001.8
32730 kPa | 1001.6
32769 kPa | 1001.8
32816 kPa | 1001.8
32856 kPa | 1001.8
32896 kPa | 1001.8
32943 kPa | 1001.8
32983 kPa | 1001.9
33024 kPa | 1001.9
33064 kPa | 1001.9
33114 kPa | 1002
33154 kPa | 1001.9
33196 kPa | 1001.9
33244 kPa | 1002.1
33285 kPa | 1002.1
33326 kPa | 1002.2
33374 kPa | 1002
33416 kPa | 1002.1
33457 kPa | 1002.2
33507 kPa | 1002.2
33548 kPa | 1002.2
33591 kPa | 1002.3
33641 kPa | 1002.3
33684 kPa | 1002.3
33726 kPa | 1002.5
33778 kPa | 1002.4
33822 kPa | 1002.4
